In one test the target is T1, KIT(JMminus) (Homo sapiens, UniProt P10721).
T1 construct: KIT(JMminus); made in house
The experiment in a line: Binding constant (Kd) measurement, phage-displayed kinase competition binding assay: KIT(JMminus). From the text: (§1) The term “ND” represents non-determined values.

A further test has as its target T2, KIT(DKIN) (Homo sapiens, UniProt P10721).
T2 construct: KIT(DKIN); made in house
As to the kind of experiment: Binding constant (Kd) measurement, phage-displayed kinase competition binding assay: KIT(DKIN).
From the text: as §1

T1 sequence (P10721 589-937 limits assumed): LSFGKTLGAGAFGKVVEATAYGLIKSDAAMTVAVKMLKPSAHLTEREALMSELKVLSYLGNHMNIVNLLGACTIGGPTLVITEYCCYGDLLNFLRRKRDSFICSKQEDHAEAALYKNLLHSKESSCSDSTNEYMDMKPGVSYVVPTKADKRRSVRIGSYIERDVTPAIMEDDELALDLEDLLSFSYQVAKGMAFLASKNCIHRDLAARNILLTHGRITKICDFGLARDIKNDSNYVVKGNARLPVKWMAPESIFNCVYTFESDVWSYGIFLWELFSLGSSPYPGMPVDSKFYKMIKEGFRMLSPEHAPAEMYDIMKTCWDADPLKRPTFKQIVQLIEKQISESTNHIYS
T2 sequence (P10721 589-937 limits assumed): as above

What is called Kd is the equilibrium constant for the complex coming apart. Higher therefore signals lower affinity. Consider `Cc1ccc(C(=O)Nc2ccc(NC(=O)Nc3cc(C(C)(C)C)on3)cc2)cc1` [Compound N92], for which the Kd was under 100 nM on KIT(JMminus) and 100 to 1000 nM on KIT(DKIN). `CC(C)(C)c1cc(NC(=O)Nc2ccc(NC(=O)c3ccc4ccccc4c3)cc2)no1` [Compound N28]: the Kd on KIT(JMminus) and at KIT(DKIN) was under 100 nM in each case. For the molecule `CC(C)(C)c1cc(NC(=O)Nc2ccc(NC(=O)c3ccc4ccccc4n3)cc2)no1` [Compound N143], the Kd at KIT(JMminus) and at KIT(DKIN) was under 100 nM in each case. As to `Cc1cnc(C(=O)Nc2ccc(NC(=O)Nc3cc(C(C)(C)C)on3)cc2)cn1` [Compound O2], the Kd on KIT(JMminus) and on KIT(DKIN) was under 100 nM each time. As to `CC(C)(C)c1cc(NC(=O)Nc2ccc(NC(=O)/C=C/c3ccccc3Cl)cc2)no1` [Compound N40], the Kd at KIT(JMminus) was under 100 nM; at KIT(DKIN) it was 100 to 1000 nM. In the case of `Cc1cccc(C(=O)Nc2ccc(NC(=O)Nc3cc(C(C)(C)C)on3)cc2)n1` [Compound N121], the Kd on KIT(JMminus) and on KIT(DKIN) was under 100 nM in each case. For `CC(C)(C)c1cc(NC(=O)Nc2ccc(NC(=O)c3ccc4ccncc4n3)cc2)no1` [Compound N110], the Kd on KIT(JMminus) and at KIT(DKIN) was under 100 nM throughout. `CC(C)(C)c1cc(NC(=O)Nc2ccc(NC(=O)c3ccc4sccc4c3)cc2)no1` [Compound N122]: the Kd was under 100 nM at KIT(JMminus) and 100 to 1000 nM at KIT(DKIN).

For the molecule `Cc1nc(-c2ccc(C(=O)Nc3ccc(NC(=O)Nc4cc(C(C)(C)C)on4)cc3)s2)cs1` [Compound N173], the Kd on KIT(JMminus) is under 100 nM; on KIT(DKIN), 100 to 1000 nM. For `Cc1nc(N)cc(Nc2ccc(NC(=O)Nc3cc(C(C)(C)C)on3)cc2)n1` [Compound O10], in that order: under 100 nM and 100 to 1000 nM. As to `Cc1ccc2sc(C(=O)Nc3ccc(NC(=O)Nc4cc(C(C)(C)C)on4)cc3)cc2c1` [Compound N133], the Kd on KIT(JMminus) was under 100 nM; on KIT(DKIN), 100 to 1000 nM. At KIT(JMminus), `COc1cc(C(=O)Nc2ccc(NC(=O)Nc3cc(C(C)(C)C)on3)cc2)nc(OC)n1` [Compound N162] showed a Kd of under 100 nM.

As to `CC(C)(C)c1cc(C(=O)Nc2ccc(NC(=O)Nc3cc(C(C)(C)C)on3)cc2)n(-c2ccccc2)n1` [Compound N78], on KIT(JMminus), the Kd was under 100 nM.

In the case of `COc1cc(NC(=O)CCC(=O)N2CCNC(=O)CC2)ccc1NC(=O)Nc1cc(C(C)(C)C)on1` [Compound N172], at KIT(JMminus), the Kd fell in the range of 100 to 1000 nM. As for `CC(C)(C)c1cc(NC(=O)Nc2ccc(NC(=O)c3cccc(F)n3)cc2)no1` [Compound N8], the Kd on KIT(JMminus) and on KIT(DKIN) was under 100 nM throughout.

The molecule `CC(C)(C)c1cc(NC(=O)Nc2ccc(NC(=O)c3cc(Br)cn(Cc4ccccc4)c3=O)cc2)no1` [Compound N67] had a Kd on KIT(JMminus) of under 100 nM. The same measure, in the same setting: next, `CC(C)c1cc(NC(=O)Nc2ccc(NC(=O)C3CCN(c4ncc(C(F)(F)F)cc4Cl)CC3)cc2)no1` [Compound N59]: 100 to 1000 nM; `CC(C)(C)c1cc(NC(=O)Nc2ccc(NC(=O)c3cccnc3C(=O)O)cc2)no1` [Compound N165]: under 100 nM; `CC(C)(C)c1cc(NC(=O)Nc2ccc([N+](=O)[O-])cc2)no1` [Compound A21]: under 100 nM. Same read-out and setting: as for `CC(C)(C)c1cc(NC(=O)Nc2ccc(Nc3nc(N)nc4[nH]cnc34)cc2)no1` [Compound O6], the figure is under 100 nM.

Take `CC(C)(C)c1cc(NC(=O)Nc2ccc(Nc3nc(Cl)nc4[nH]cnc34)cc2)no1` [Compound O4]: the Kd at KIT(JMminus) and on KIT(DKIN) was under 100 nM throughout.

The molecule `COc1cc(OC)nc(Oc2cccnc2C(=O)Nc2ccc(NC(=O)Nc3cc(C(C)(C)C)on3)cc2)n1` [Compound N56] returned a Kd on KIT(JMminus) of 100 to 1000 nM.

As to `CC(C)(C)c1cc(NC(=O)Nc2ccc(NC(=O)c3cc(Cl)nnc3Cl)cc2)no1` [Compound N174], the Kd at KIT(JMminus) and at KIT(DKIN) was 1000 to 10000 nM in each case. In the case of `Cc1cnc(C(=O)Nc2ccc(NC(=O)Nc3cc(C(C)(C)C)on3)cc2)c(C(=O)O)n1` [Compound N160], the Kd at KIT(JMminus) was under 100 nM. The same measure, in the same setting: as for `CC(C)(C)c1cc(NC(=O)Nc2ccc(NC(=O)c3nccc4ccccc34)cc2)no1` [Compound N117], the figure is under 100 nM; as for `COc1ccc(C(=O)c2c[nH]c(C(=O)Nc3ccc(NC(=O)Nc4cc(C(C)(C)C)on4)cc3)c2)cc1` [Compound N177], 100 to 1000 nM; as for `CC(C)(C)c1cc(NC(=O)Nc2ccc(NC(=O)c3nnsc3Sc3ccc(C(F)(F)F)cc3)cc2)no1` [Compound N179], under 100 nM. On to `CC(C)(C)c1cc(NC(=O)Nc2ccc(NC(=O)c3cccc(Cl)n3)cc2)no1` [Compound N4], for which the Kd at KIT(JMminus) and at KIT(DKIN) was under 100 nM in each case. As to `CC(C)(C)c1cc(NC(=O)Nc2ccc(NC(=O)c3cn4nc(Cl)ccc4n3)cc2)no1` [Compound N9], the Kd at KIT(JMminus) and at KIT(DKIN) was under 100 nM in each case.

On to `CC(C)(C)c1cc(NC(=O)Nc2ccc(NC(=O)c3csc(Cc4cccc(C(F)(F)F)c4)n3)cc2)no1` [Compound N180], for which, at KIT(JMminus), the Kd is under 100 nM. On the same count and under the same terms, next, `COc1ccnc(Nc2ccc(C(=O)Nc3ccc(NC(=O)Nc4cc(C(C)(C)C)on4)cc3)cc2)n1` [Compound N51]: under 100 nM; `Cc1cc(NC(=O)c2cn3nc(Cl)ccc3n2)ccc1NC(=O)Nc1cc(C(C)(C)C)on1` [Compound N169]: under 100 nM. Still for that read-out and setting: as for `CC(C)(C)c1cc(NC(=O)Nc2ccc(NC(=O)c3nnsc3Cc3ccc(Cl)cc3)cc2)no1` [Compound N71], the figure is 100 to 1000 nM; as for `CC(=O)c1ccc(N2CCC(C(=O)Nc3ccc(NC(=O)Nc4cc(C(C)(C)C)on4)cc3)CC2)cc1` [Compound N65], under 100 nM. `CC(C)(C)c1cc(NC(=O)Nc2ccc(NC(=O)c3ccccc3O)cc2)no1` [Compound N69] had a Kd at KIT(JMminus) of 1000 to 10000 nM.

The molecule `COc1ccc(NC(=O)Nc2cc(C(C)(C)C)on2)cc1OC` [Compound A55] yielded a Kd on KIT(JMminus) of 1000 to 10000 nM. Regarding `Cc1cccnc1C(=O)Nc1ccc(NC(=O)Nc2cc(C(C)(C)C)on2)cc1` [Compound N41], the Kd on KIT(JMminus) and at KIT(DKIN) was under 100 nM throughout. Turning to `Cn1nc(C(F)(F)F)c2cc(C(=O)Nc3ccc(NC(=O)Nc4cc(C(C)(C)C)on4)cc3)sc21` [Compound N64], the Kd at KIT(JMminus) is 100 to 1000 nM. The same measure, in the same setting: next, `CC(C)(C)c1cc(NC(=O)Nc2ccc(NC(=O)c3cc(O)c4cccc(O)c4n3)cc2)no1` [Compound N176]: 1000 to 10000 nM.

Molecule `CC(C)(C)c1cc(NC(=O)Nc2ccc(NC(=O)C3=Cc4cc(F)cc(S(C)(=O)=O)c4C3)cc2)no1` [Compound N62] displayed a Kd at KIT(JMminus) of under 100 nM. Still for that read-out and setting: as for `CC(C)(C)c1cc(NC(=O)Nc2ccc(NC(=O)c3cc(N4CCOCC4)nc(N4CCOCC4)c3)cc2)no1` [Compound N54], the figure is under 100 nM; as for `CC(C)(C)c1cc(NC(=O)Nc2ccc(NC(=O)c3cc4cccnc4nc3C(F)(F)F)cc2)no1` [Compound N61], 100 to 1000 nM. Take `CC(C)(C)c1cc(NC(=O)Nc2ccc(NC(=O)c3cc4ccccc4cn3)cc2)no1` [Compound N106]: the Kd at KIT(JMminus) and at KIT(DKIN) was under 100 nM each time. For the molecule `CC(C)(C)c1cc(NC(=O)Nc2ccc(OCCCc3ccncc3)cc2)no1` [Compound G1, 1-(4-(3-(pyridin-4-yl)propoxy)phenyl)-3-(5-tert-butylisoxazol-3-yl)urea], the Kd at KIT(JMminus) and on KIT(DKIN) was under 100 nM each time.

These data come from patent publication US20050192314A1, “Urea derivatives as C-kit modulators” (Ambit Biosciences Corporation, priority 2003, published 2005).
